Laboratory results from US9725414B2, “Fungicidal N-bicycloalkyl and N-tricycloalkyl pyrazole-4-(thio)carboxamide derivatives” (priority 2011, dated 2017).

What was measured:
[1] = log P by HPLC on reversed-phase column (C 18), EEC Directive 79831 Annex V.A8; type: physicochemical; conditions: HPLC reversed-phase C 18, 40° C., 0.1% aqueous formic acid and acetonitrile gradient; several values = mixture of two or more isomers
How it was run: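 Reversed-phase C18 HPLC at 40° C, 0.1% aqueous formic acid/acetonitrile linear gradient 10% to 90% acetonitrile, per EEC Directive 79831 Annex V.A8. log P obtained from retention time by linear interpolation between unbranched alkan-2-ones (C3-C16) of known log P.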

Puccinia triticina = experiment: Example L: in vivo preventive test on Puccinia triticina (wheat); conditions: 500 ppm of active ingredient, evaluated 8 days after inoculation
Description: In Vivo Preventive Test on Puccinia triticina (Wheat)
Solvent: 49 parts by weight of N,N-dimethylacetamide
Emulsifier: 1 part by weight of alkylaryl polyglycol ether
To produce a suitable preparation of active compound, 1 part by weight of active compound or active compound combination is mixed with the stated amounts of solvent and emulsifier, and the concentrate is diluted with water to the desired concentration.
To test for preventive activity, young plants are sprayed with the preparation of active compound or active compound combination at the stated rate of application.
After the spray coating has been dried, the plants are sprayed with a spore suspension of Puccinia triticina.
The plants remain for 48 hours in an incubation cabinet at approximately 20° C. and a relative atmospheric humidity of approximately 100%.
The plants are placed in the greenhouse at a temperature of approximately 20° C. and a relative atmospheric humidity of approximately 80%.
The test is evaluated 8 days after the inoculation. 0% means an efficacy which corresponds to that of the untreated control, while an efficacy of 100% means that no disease is observed.

[2] = system: Fusarium nivale (var. majus); experiment: Example N: in vivo preventive test on Fusarium nivale (wheat); conditions: 500 ppm of active ingredient, evaluated 5 days after inoculation
Description: In Vivo Preventive Test on Fusarium nivale (Wheat) Solvent: 49 parts by weight of N,N-dimethylacetamide Emulsifier: 1 part by weight of alkylaryl polyglycol ether To produce a suitable preparation of active compound, 1 part by weight of active compound or active compound combination is mixed with the stated amounts of solvent and emulsifier, and the concentrate is diluted with water to the desired concentration. To test for preventive activity, young plants are sprayed with the preparation of active compound or active compound combination at the stated rate of application. After the spray coating has been dried, the plants are slightly injured by using a sandblast and afterwards they are sprayed with a conidia suspension of Fusarium nivale (var. majus). The plants are placed in the greenhouse under a translucent incubation cabinet at a temperature of approximately 10° C. and a relative atmospheric humidity of approximately 100%.

Puccinia recondita = experiment: Example M: in vivo preventive test on Puccinia recondita (brown rust on wheat); conditions: 500 ppm of active ingredient, grading 12 days after contamination
How it was run: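 Wheat (Scipion) sprayed with compound at 1-leaf stage, grown at 22° C. Inoculated 24 h later with a spore suspension at 100 000 spores per mL. Efficacy (%) graded 12 days after inoculation against solvent-treated controls.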

Septoria tritici [3] = experiment: Example I: in vivo preventive test on Septoria tritici (wheat), acetone/tween/DMSO preparation; conditions: 500 ppm of active ingredient, grading 24 days after contamination
How it was run: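 Scipion wheat grown at 22° C, sprayed at 1-leaf stage (10 cm); controls received acetone/tween/DMSO/water without active. Inoculated 24 h later with S. tritici spores (500 000/mL), held 72 h at 18° C, 100% RH, then 21 days at 90% RH. % efficacy vs controls scored 24 days post-inoculation.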

[4] = system: Blumeria graminis f.sp. hordei; experiment: Example J: in vivo preventive test on Blumeria graminis (barley); conditions: 500 ppm of active ingredient, evaluated 7 days after inoculation
Description: In Vivo Preventive Test on Blumeria graminis (Barley) Solvent: 49 parts by weight of N,N-dimethylacetamide Emulsifier: 1 part by weight of alkylaryl polyglycol ether To produce a suitable preparation of active compound, 1 part by weight of active compound or active compound combination is mixed with the stated amounts of solvent and emulsifier, and the concentrate is diluted with water to the desired concentration. To test for preventive activity, young plants are sprayed with the preparation of active compound or active compound combination at the stated rate of application. After the spray coating has been dried, the plants are dusted with spores of Blumeria graminis f.sp. hordei.

Septoria tritici [5] = experiment: Example H: in vivo preventive test on Septoria tritici (wheat), N,N-dimethylacetamide/emulsifier preparation; conditions: 500 ppm of active ingredient, evaluated 21 days after inoculation
Description: (§1) In Vivo Preventive Test on Septoria tritici (Wheat) Solvent: 49 parts by weight of N,N-dimethylacetamide Emulsifier: 1 part by weight of alkylaryl polyglycol ether To produce a suitable preparation of active compound, 1 part by weight of active compound or active compound combination is mixed with the stated amounts of solvent and emulsifier, and the concentrate is diluted with water to the desired concentration. To test for preventive activity, young plants are sprayed with the preparation of active compound or active compound combination at the stated rate of application. After the spray coating has been dried, the plants are sprayed with a spore suspension of Septoria tritici. The plants remain for 48 hours in an incubation cabinet at approximately 20° C. and a relative atmospheric humidity of approximately 100% and afterwards for 60 hours at approximately 15° C. in a translucent incubation cabinet at a relative atmospheric humidity of approximately 100%.

Leptosphaeria nodorum = experiment: Example K: in vivo preventive test on Leptosphaeria nodorum (wheat); conditions: 500 ppm of active ingredient, evaluated 8 days after inoculation
Description: as §1, with “Leptosphaeria nodorum” for “Septoria tritici”, “Leptosphaeria nodorum.” for “Septoria tritici.”, “approximately” for “approximately 100% and afterwards for 60 hours at approximately 15° C. in a translucent incubation cabinet at a relative atmospheric humidity of approximately”

logP [1]	Compound	Efficacy (Puccinia triticina) [%]	Efficacy [2] [%]	Efficacy (Puccinia recondita) [%]	Efficacy (Septoria tritici [3]) [%]	Efficacy [4] [%]	Efficacy (Septoria tritici [5]) [%]	Efficacy (Leptosphaeria nodorum) [%]
4.11	Cn1nc(C(F)F)c(C(=O)N(C2CC2)C2CC3CCCCC3C2)c1F (stereo not drawn) [Example 12]	100	100	94	100	100	100	93
3.99	Cn1nc(C(F)F)c(C(=O)N(C2CC2)C2CCCC3CCCC32)c1F (stereo not drawn) [Example 19]	100	100	100	96	100	100	100

The next lines start with the molecule.

Compound	logP [1]	Efficacy (Puccinia triticina) [%]	Efficacy [2] [%]	Efficacy (Puccinia recondita) [%]	Efficacy (Septoria tritici [3]) [%]	Efficacy [4] [%]	Efficacy (Septoria tritici [5]) [%]	Efficacy (Leptosphaeria nodorum) [%]
Cn1cc(C(=O)N(C2CC2)C2CCCC3CCCC32)c(C(F)F)n1 (stereo not drawn) [Example 20]	3.48	78	100	81	96	95	100	86
Cn1nc(C(F)F)c(C(=O)N(CC2CCC3CCCC3C2)C2CC2)c1F (stereo not drawn) [Example 62]	4.41	100	100	98	100	100	100	100
Cn1nc(C(F)F)c(C(=O)N(CC2(Cc3ccccc3)CC3CCC2C3)C2CC2)c1F (stereo not drawn) [Example 69]	4.91		93	81	97	100	100	100
Cn1nc(C(F)F)c(C(=O)N(CC2CC3CCC2C3)C2CC2)c1F (stereo not drawn) [Example 71]	3.58	100	100			100	100	100
CC(C1CC2CCC1C2)N(C(=O)c1c(C(F)F)nn(C)c1F)C1CC1 (stereo not drawn) [Example 93]	4.01	100	100			100	83	100
